Results reported in PubChem BioAssay AID1918944 (Molecular Pharmacology Branch, DTP, NCI, 2023).
Where “and” joins values, the source holds several entries; their conditions need not be identical. Equal values may be shown once.

System: 786-0 complex spheroid viability
Test: Anticancer human tumor 786-0 cell line growth inhibition;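 note: spheroids exposed to agents for seven days before readout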
Settings: for viability, T/C: stronger effect = lower value; active = viability on the fitted dose curve at most 10% of control; inactive = the rest
How it was run: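 Complex spheroids of tumor cells with HUVEC and human MSCs, exposed to iadademstat combined with other agents. Each agent tested in half-log steps from near clinical Cmax (else 10 microM top), DMSO ≤0.25%.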

[1] = curve of first compound, second compound 0.1 µM
[2] = curve of first compound, second compound 0.316 µM
[3] = curve of first compound, second compound 1 µM
[4] = curve of first compound, second compound 3.16 µM
[5] = curve of first compound, second compound 10 µM
[6] = second compound 0.1 µM, first compound 0.000316 µM
[7] = second compound 0.1 µM, first compound 0.001 µM
[8] = second compound 0.1 µM, first compound 0.00316 µM
[9] = second compound 0.1 µM, first compound 0.01 µM
[10] = second compound 0.1 µM, first compound 0.0316 µM
[11] = second compound 0.1 µM, first compound 0.1 µM
[12] = second compound 0.316 µM, first compound 0.000316 µM
[13] = second compound 0.316 µM, first compound 0.001 µM
[14] = second compound 0.316 µM, first compound 0.00316 µM
[15] = second compound 0.316 µM, first compound 0.01 µM
[16] = second compound 0.316 µM, first compound 0.0316 µM
[17] = second compound 0.316 µM, first compound 0.1 µM
[18] = second compound 1 µM, first compound 0.000316 µM
[19] = second compound 1 µM, first compound 0.001 µM
[20] = second compound 1 µM, first compound 0.00316 µM
[21] = second compound 1 µM, first compound 0.01 µM
[22] = second compound 1 µM, first compound 0.0316 µM
[23] = second compound 1 µM, first compound 0.1 µM
[24] = second compound 3.16 µM, first compound 0.000316 µM
[25] = second compound 3.16 µM, first compound 0.001 µM
[26] = second compound 3.16 µM, first compound 0.00316 µM
[27] = second compound 3.16 µM, first compound 0.01 µM
[28] = second compound 3.16 µM, first compound 0.0316 µM
[29] = second compound 3.16 µM, first compound 0.1 µM
[30] = second compound 10 µM, first compound 0.000316 µM
[31] = second compound 10 µM, first compound 0.001 µM
[32] = second compound 10 µM, first compound 0.00316 µM
[33] = second compound 10 µM, first compound 0.01 µM
[34] = second compound 10 µM, first compound 0.0316 µM
[35] = second compound 10 µM, first compound 0.1 µM

COc1cc(C2c3cc4c(cc3C(OC3OC5COC(C)OC5C(O)C3O)C3COC(=O)C23)OCO4)cc(OC)c1O (stereo not drawn)
241 nM and 396 nM: IC50 (curve of compound)
inactive: viability, T/C (compound 0.00949 µM) 103% and 96% | viability, T/C (compound 0.03 µM) 96.4% and 94.6% | viability, T/C (compound 0.0949 µM) 63.6% and 72.1% | viability, T/C (compound 0.3 µM) 49.5% and 53.4% | viability, T/C (compound 0.949 µM) 23.1% and 38.4% | viability, T/C (compound 3 µM) 11.1% and 21.9%

CCN(c1cc(-c2ccc(CN3CCOCC3)cc2)cc(C(=O)NCc2c(C)cc(C)[nH]c2=O)c1C)C1CCOCC1 + NC1CCC(NC2CC2c2ccccc2)CC1
> 3000 nM: IC50 [1] | IC50 [2] | IC50 [3] | IC50 [4] | IC50 [5]
inactive: viability, T/C (second compound 0.1 µM, first compound 0.00949 µM) 121% | viability, T/C (second compound 0.1 µM, first compound 0.03 µM) 122% | viability, T/C (second compound 0.1 µM, first compound 0.0949 µM) 117% | viability, T/C (second compound 0.1 µM, first compound 0.3 µM) 114% | viability, T/C (second compound 0.1 µM, first compound 0.949 µM) 114% | viability, T/C (second compound 0.1 µM, first compound 3 µM) 111% | viability, T/C (second compound 0.316 µM, first compound 0.00949 µM) 119% | viability, T/C (second compound 0.316 µM, first compound 0.03 µM) 118% | viability, T/C (second compound 0.316 µM, first compound 0.0949 µM) 114% | viability, T/C (second compound 0.316 µM, first compound 0.3 µM) 116% | viability, T/C (second compound 0.316 µM, first compound 0.949 µM) 109% | viability, T/C (second compound 0.316 µM, first compound 3 µM) 106% | viability, T/C (second compound 1 µM, first compound 0.00949 µM) 116% | viability, T/C (second compound 1 µM, first compound 0.03 µM) 114% | viability, T/C (second compound 1 µM, first compound 0.0949 µM) 115% | viability, T/C (second compound 1 µM, first compound 0.3 µM) 109% | viability, T/C (second compound 1 µM, first compound 0.949 µM) 105% | viability, T/C (second compound 1 µM, first compound 3 µM) 106% | viability, T/C (second compound 3.16 µM, first compound 0.00949 µM) 111% | viability, T/C (second compound 3.16 µM, first compound 0.03 µM) 105% | viability, T/C (second compound 3.16 µM, first compound 0.0949 µM) 109% | viability, T/C (second compound 3.16 µM, first compound 0.3 µM) 110% | viability, T/C (second compound 3.16 µM, first compound 0.949 µM) 97.2% | viability, T/C (second compound 3.16 µM, first compound 3 µM) 105% | viability, T/C (second compound 10 µM, first compound 0.00949 µM) 87.2% | viability, T/C (second compound 10 µM, first compound 0.03 µM) 90.2% | viability, T/C (second compound 10 µM, first compound 0.0949 µM) 91.2% | viability, T/C (second compound 10 µM, first compound 0.3 µM) 96.5% | viability, T/C (second compound 10 µM, first compound 0.949 µM) 88.3% | viability, T/C (second compound 10 µM, first compound 3 µM) 89%

COc1ccc([C@@H](O)c2cc(-c3ncnc4cc(N5CCOCC5)ccc34)c(F)cc2Cl)nn1
inactive: viability, T/C (compound 0.0316 µM) 105% and 102% | viability, T/C (compound 0.1 µM) 105% and 103% | viability, T/C (compound 0.316 µM) 107% and 99.3% | viability, T/C (compound 1 µM) 94.2% and 89.3% | viability, T/C (compound 3.16 µM) 66.3% and 59.2% | viability, T/C (compound 10 µM) 42.8% and 42.1%
7010 nM and 5890 nM: IC50 (curve of compound)

CC[C@@]1(O)C(=O)OCc2c1cc1n(c2=O)Cc2cc3c(CN(C)C)c(O)ccc3nc2-1
active: viability, T/C (compound 0.0316 µM) 9.17% and 10.9% | viability, T/C (compound 0.1 µM) 4.15% and 4.08%
inactive: viability, T/C (compound 0.000316 µM) 103% and 99.7% | viability, T/C (compound 0.001 µM) 96.7% and 96.5% | viability, T/C (compound 0.00316 µM) 65.8% and 70.9% | viability, T/C (compound 0.01 µM) 15.6% and 24.7%
4.54 nM and 5.35 nM: IC50 (curve of compound)

CC[C@@]1(O)C(=O)OCc2c1cc1n(c2=O)Cc2cc3c(CN(C)C)c(O)ccc3nc2-1 + NC1CC1c1ccc(-c2cccc(O)c2)cc1
5.02 nM: IC50 [1]
4.87 nM: IC50 [2]
active: viability, T/C [10] 6.23% | viability, T/C [11] 2.94% | viability, T/C [16] 4.65% | viability, T/C [17] 3.46% | viability, T/C [22] 4.54% | viability, T/C [23] 2.99% | viability, T/C [28] 5.39% | viability, T/C [29] 2.22% | viability, T/C [33] 8.93% | viability, T/C [34] 3.25% | viability, T/C [35] 2.9%
4.02 nM: IC50 [5]
inactive: viability, T/C [6] 112% | viability, T/C [7] 109% | viability, T/C [8] 74.6% | viability, T/C [9] 13.2% | viability, T/C [12] 109% | viability, T/C [13] 105% | viability, T/C [14] 73.6% | viability, T/C [15] 10.7% | viability, T/C [18] 119% | viability, T/C [19] 109% | viability, T/C [20] 73.4% | viability, T/C [21] 10.8% | viability, T/C [24] 107% | viability, T/C [25] 107% | viability, T/C [26] 70% | viability, T/C [27] 10.8% | viability, T/C [30] 104% | viability, T/C [31] 109% | viability, T/C [32] 61%
4.67 nM: IC50 [4]
4.86 nM: IC50 [3]

CC1(C)CCC(CN2CCN(c3ccc(C(=O)NS(=O)(=O)c4ccc(NCC5CCOCC5)c([N+](=O)[O-])c4)c(Oc4cnc5[nH]ccc5c4)c3)CC2)=C(c2ccc(Cl)cc2)C1
> 10000 nM: IC50 (curve of compound)
inactive: viability, T/C (compound 0.0316 µM) 102% and 98% | viability, T/C (compound 0.1 µM) 106% and 105% | viability, T/C (compound 0.316 µM) 96.9% and 110% | viability, T/C (compound 1 µM) 97% and 99.1% | viability, T/C (compound 3.16 µM) 90.1% and 93.2% | viability, T/C (compound 10 µM) 66.7% and 79.4%

O=C(c1cc(Cc2n[nH]c(=O)c3ccccc23)ccc1F)N1CCN(C(=O)C2CC2)CC1 + NC1CC1c1ccc(-c2cccc(O)c2)cc1
> 10000 nM: IC50 [1] | IC50 [2] | IC50 [3] | IC50 [4] | IC50 [5]
inactive: viability, T/C [10] 111% | viability, T/C [11] 119% | viability, T/C (second compound 0.1 µM, first compound 0.316 µM) 107% | viability, T/C (second compound 0.1 µM, first compound 1 µM) 105% | viability, T/C (second compound 0.1 µM, first compound 3.16 µM) 97.6% | viability, T/C (second compound 0.1 µM, first compound 10 µM) 80.8% | viability, T/C [16] 112% | viability, T/C [17] 112% | viability, T/C (second compound 0.316 µM, first compound 0.316 µM) 112% | viability, T/C (second compound 0.316 µM, first compound 1 µM) 109% | viability, T/C (second compound 0.316 µM, first compound 3.16 µM) 98.8% | viability, T/C (second compound 0.316 µM, first compound 10 µM) 81.1% | viability, T/C [22] 111% | viability, T/C [23] 110% | viability, T/C (second compound 1 µM, first compound 0.316 µM) 113% | viability, T/C (second compound 1 µM, first compound 1 µM) 108% | viability, T/C (second compound 1 µM, first compound 3.16 µM) 93.3% | viability, T/C (second compound 1 µM, first compound 10 µM) 78.6% | viability, T/C [28] 103% | viability, T/C [29] 105% | viability, T/C (second compound 3.16 µM, first compound 0.316 µM) 103% | viability, T/C (second compound 3.16 µM, first compound 1 µM) 97.5% | viability, T/C (second compound 3.16 µM, first compound 3.16 µM) 85.9% | viability, T/C (second compound 3.16 µM, first compound 10 µM) 68.4% | viability, T/C [34] 97.3% | viability, T/C [35] 98.8% | viability, T/C (second compound 10 µM, first compound 0.316 µM) 89.3% | viability, T/C (second compound 10 µM, first compound 1 µM) 90.7% | viability, T/C (second compound 10 µM, first compound 3.16 µM) 72.8% | viability, T/C (second compound 10 µM, first compound 10 µM) 52.9%

CC(C)CC(NC(=O)C(Cc1ccccc1)NC(=O)c1cnccn1)B(O)O (stereo not drawn) + NC1CCC(NC2CC2c2ccccc2)CC1
active: viability, T/C [9] 2.11% | viability, T/C [10] 0.17% | viability, T/C [11] 0.14% | viability, T/C [15] 3.06% | viability, T/C [16] 0.46% | viability, T/C [17] 0.16% | viability, T/C [21] 6.05% | viability, T/C [22] 0.96% | viability, T/C [23] 0.23% | viability, T/C [27] 5.87% | viability, T/C [28] 0.76% | viability, T/C [29] 0.29% | viability, T/C [33] 3.66% | viability, T/C [34] 1.18% | viability, T/C [35] 0.23%
2.25 nM: IC50 [4]
2.56 nM: IC50 [2] | IC50 [3]
inactive: viability, T/C [6] 122% | viability, T/C [7] 114% | viability, T/C [8] 42.6% | viability, T/C [12] 115% | viability, T/C [13] 110% | viability, T/C [14] 36.6% | viability, T/C [18] 117% | viability, T/C [19] 113% | viability, T/C [20] 35.9% | viability, T/C [24] 106% | viability, T/C [25] 102% | viability, T/C [26] 28.2% | viability, T/C [30] 92.1% | viability, T/C [31] 86.1% | viability, T/C [32] 24%
2.81 nM: IC50 [1]
1.95 nM: IC50 [5]
